Source: US20190388437A1, “COMPOSITIONS AND METHODS FOR TREATING BONE AND JOINT INFECTIONS” (priority 2014, published 2019)
In brackets after ≈: the same amount, converted by molar mass.

What was measured:
S. aureus = experiment: MIC population distribution, 217 S. aureus Canadian isolates; type: cell-based; settings: 217 Canadian isolates
[1] = tested on: S. aureus MRSA (Mec A genotype); experiment: Agar dilution MIC against resistant S. aureus; type: cell-based; settings: Staphylococcus aureus
From the text: The in vitro activity of CEM-102 was compared with that of telithromycin, azithromycin, erythromycin, levofloxacin, linezolid, and doxycycline against a total of 145 resistant S. aureus by agar dilution procedures (CLSI, M7-A7, M100-S18). The tested strains included S. aureus MRSA (Mec A genotype; 100 isolates), macrolide-resistant (ermA, B, C genotype or MLSb-resistant; 25), and ciprofloxacin-resistant (gyrA and parC genotype; 20).

[2] = Multi-dose bioavailability study, 500 mg TID; type: in vivo, healthy subjects (human)
Method: Multi-dose bioavailability study using FA at 500 mg TID. The pharmacokinetics of multiple oral doses of CEM-102 (sodium fusidate) 500 mg tablets in healthy subjects was evaluated. […] Blood samples for assay of plasma concentrations of CEM-102 and placebo were collected pre-dose on Day 1 and at 24, 48, 72, and 96 hours. […] Plasma concentrations of CEM-102 were assayed at MicroConstants. Inc. in San Diego, Calif., USA using a validated LC/MS/MS method with a lower limit of quantitation (LLOQ) of 20.0 ng/mL.

[3] = Dose escalation study, single and multiple doses: PK, safety, tolerability; type: in vivo, healthy adult subjects (human)
Method: Dose Escalation Study Using Single- and Multi-Dose FA. The pharmacokinetics (PK), safety, and tolerability of single and multiple doses of CEM-102 (sodium fusidate) were evaluated in a single-center, Phase 1, double-blind, randomized, placebo-controlled, dose-escalating study in 32 healthy adult subjects enrolled in 4 dosage groups (550, 1100, 1650, and 2200 mg). In each cohort, six subjects were to receive CEM-102 and two were to receive placebo in a single dose (Period 1) and then multiple doses BID for a total of 11 doses over 5.5 days (Period 2). The two dosing periods were separated by a seven-day washout period between the single dose in Period 1 and the first dose in Period 2.
Dosing proceeded as planned for Cohorts 1 to 3; however, Cohort 4 received only the single dose of 2200 mg (Period 1), because dose-limiting gastrointestinal intolerance was observed after multiple doses of 1650 mg BID in Cohort 3. Period 2 for Cohort 4 evaluated an initial loading dose regimen, and a second loading dose regimen was evaluated in an additional cohort (Cohort 5) per a protocol amendment.

[4] = tested on: Group A beta hemolytic Streptococcus; settings: cited from earlier work
Staphylococcus = settings: cited from earlier work
[5] = Period 1 Day 1, single dose 1650 mg

## CC(=O)O[C@H]1C[C@@]2(C)[C@@H](C[C@@H](O)[C@H]3[C@@]4(C)CC[C@@H](O)[C@@H](C)[C@@H]4CC[C@@]32C)/C1=C(\CCC=C(C)C)C(=O)O [FA, fusidic acid]
S. aureus
  resistance rate (for CEM-102: isolates with MICs of ≥2.0 μg/mL): 6.5%
[1]
  MIC90: 0.25 µg/mL (≈ 0.484 µM)
[2]; human, in vivo, 500 mg
  Cmaxss, geometric mean (CV %): 145680 (25.3) ng/mL
  t½ss, arithmetic mean ± SD: approximately 19 h
[2]; prior to dosing on Day 5, 500 mg TID
  Trough level: 105 µg/mL
[3]; Period 1 Day 1, single dose 1100 mg
  tmax, median: 3.50 h
[3]; [5]
  T1/2, harmonic mean: 13.9 h
  tmax, median: 3.00 h
[3]; Period 2 Day 6, 1100 mg BID
  tmax, median: 4.00 h
[3]; human, in vivo, 2200 mg
  CL/F, mean: 0.924 L/h
[3]; in vivo
  gastrointestinal AEs after single dose: no gastrointestinal AEs were reported
  serious or life-threatening adverse events: No serious or life-threatening adverse events (AEs) occurred
  tolerability of single doses: well tolerated
[4]
  MIC90: 4 to 8 µg/mL
[4]; classified as moderately susceptible
  MICs: 4-16 micrograms per ml
Staphylococcus
  MIC in plasma protein: ≥ 2.5 micrograms per ml
  increase of MIC in plasma protein: 8-10 fold
